Reference: patent publication US8748466B2, “Isoxazole derivatives useful as antibacterial agents” (Pfizer Inc., priority 2011, dated 2014)
Values after ≈ are worked out from the molar mass of the structure shown.

Tests used:
Format in all cases: cell-based
[1] = system: Pseudomonas aeruginosa UC12120 (mouse virulent); assay: MIC determination (CLSI), PA-UC12120; conditions: UC12120, read-out: PA-UC12120 MIC
Method: (§1) The in vitro antibacterial activity of compounds described in the Examples was evaluated by minimum inhibitory concentration (MIC) testing according to Clinical and Laboratory Standards Institute (CLSI). See: Clinical and Laboratory Standards Institute. Methods for Dilution Antimicrobial Susceptibility Tests for Bacteria that Grow Aerobically; Approved Standard-Eighth Edition. CLSI document M7-A8 [ISBN 1-56238-689-1]. Clinical and Laboratory Standards Institute, 940 West Valley Road, Suite 1400, Wayne, Pa. 19087-1898 USA, 2006; also Clinical and Laboratory Standards Institute. Performance Standards for Antimicrobial Susceptibility Testing; Twentieth Informational Supplement. CLSI document M100-S20 [ISBN1-56238-716-2]. Clinical and Laboratory Standards Institute.
(§2) The MIC determination is a standard laboratory method for evaluating the antibacterial activity of a compound. The MIC represents the lowest drug concentration that inhibits visible growth of bacteria following overnight incubation. […] Typically, the drug concentration range is broken down into 2-fold increments (e.g., 0.06 μg/mL, 0.12 μg/mL. 0.25 μg/mL, 0.50 μg/mL, 1.0 μg/mL, etc.) and the various drug concentrations are all individually incubated overnight with approximately the same number of bacteria. The MIC is then determined by visually inspecting the drug effect at each concentration, and identifying the lowest drug concentration that has inhibited bacterial growth as compared to the drug free control. Typically, bacteria continue to grow at drug concentrations lower than the MIC and don't grow at concentrations at and above the MIC.
(§3) The MIC values described in Tables 4 and 5 below were derived from assays wherein each test compound was evaluated in duplicate. In cases where the duplicate values varied by 0-2-fold, the lower of the two values was reported below. Generally speaking, if the duplicate values varied by more than 2-fold, the assay was considered non-valid and was repeated until the variation between duplicate runs was 2-fold. In line with the CLSI guidelines referred to above, both control organisms and reference compounds were utilized in each MIC assay to provide proper quality control. MIC values generated with these control organisms and reference compounds were required to fall within a defined range for the assay to be considered valid and be included herein. Those skilled in the art will recognize that MIC values can and do vary from experiment to experiment. Generally speaking, it should be recognized that MIC values often vary +/−2-fold from experiment to experiment. While a single MIC is reported for each compound and each microorganism, the reader should not conclude that each compound was only tested once. Several of the compounds were subjected to multiple tests. The data reported in Tables 4 and 5 is reflective of the compound's relative activity and different MICs may have been generated on these occasions in line with the guidelines described above.
(§4) The following bacterial strains were used in these MIC determinations:
1) Pseudomonas aeruginosa UC12120 (mouse virulent) labeled as PA-UC12120 in Tables 4 and 5;

[2] = system: Escherichia coli EC-1: VOGEL, mouse virulent; assay: MIC determination (CLSI), EC-1; conditions: read-out: EC-1 MIC
Method: as §1, §2, §3, §4
2) Escherichia coli EC-1: VOGEL, mouse virulent labeled as EC-1 in Tables 4 and 5;

[3] = system: Acinetobacter baumannii/haemolyticus: Multidrug-resistant clinical isolate AB-3167; assay: MIC determination (CLSI), AB-3167; conditions: overnight incubation, duplicate, lower of the two values reported
Method: as §1, §2, §3, §4
3) Acinetobacter baumannii/haemolyticus: Multidrug-resistant clinical isolate labeled as AB-3167 in Tables 4 and 5;

Row | SMILES | MIC [1] [µg/mL] | MIC [2] [µg/mL] | MIC [3] [µg/mL]
1 | COc1cccc(-c2cc(CC[C@](C)(C(=O)NO)S(C)(=O)=O)no2)c1F [Example 2, (2R)-4-[5-(2-Fluoro-3-methoxyphenyl)isoxazol-3-yl]-N-hydroxy-2-methyl-2-(methylsulfonyl)butanamide] | 16 (≈ 41.4 µM) | 16 (≈ 41.4 µM) | 32 (≈ 82.8 µM)
2 | COc1ccc(-c2cc(CC[C@](C)(C(=O)NO)S(C)(=O)=O)no2)c(F)c1 [Example 5, (2R)-4-[5-(2-fluoro-4-methoxyphenyl)isoxazol-3-yl]-N-hydroxy-2-methyl-2-(methylsulfonyl)butanamide] | 0.25 (≈ 0.647 µM) | 4 (≈ 10.4 µM) | > 64
3 | COc1ccc(C(=O)NCc2cc(CCC(C)(C(=O)NO)S(C)(=O)=O)no2)cc1 (racemic) [Example 11, N-({3-[4-(hydroxyamino)-3-methyl-3-(methylsulfonyl)-4-oxobutyl]isoxazol-5-yl}methyl)-4-methoxybenzamide] | > 64 | > 64 | > 64
4 | CC(CCc1cc(CN(CCOc2ccccc2)C2CC2)on1)(C(=O)NO)S(C)(=O)=O (racemic) [Example 18, 4-(5-{[cyclopropyl(2-phenoxyethyl)amino]methyl}isoxazol-3-yl)-N-hydroxy-2-methyl-2-(methylsulfonyl)butanamide] | > 64 | > 64 | > 64
5 | Cc1cccc(-c2cc(CCC(C)(C(=O)NO)S(C)(=O)=O)no2)c1 (racemic) [Example 13, N-hydroxy-2-methyl-4-[5-(3-methylphenyl)isoxazol-3-yl]-2-(methylsulfonyl)butanamide] | 1 (≈ 2.84 µM) | 32 (≈ 90.8 µM) | 64 (≈ 182 µM)
6 | CC(CCc1cc(COc2ccc3c(c2)OCO3)on1)(C(=O)NO)S(C)(=O)=O (racemic) [Example 26, 4-{5-[(1,3-benzodioxol-5-yloxy)methyl]isoxazol-3-yl}-N-hydroxy-2-methyl-2-(methylsulfonyl)butanamide] | 4 (≈ 9.7 µM) | 16 (≈ 38.8 µM) | > 64
7 | CC(CCc1cc(CCCCCCCCCO)on1)(C(=O)NO)S(C)(=O)=O (racemic) [Example 15, N-hydroxy-4-[5-(9-hydroxynonyl)isoxazol-3-yl]-2-methyl-2-(methylsulfonyl)butanamide] | 4 (≈ 9.89 µM) | 16 (≈ 39.6 µM) | > 64
8 | CC(CCc1cc(C(=O)NC2CCCCC2)no1)(C(=O)NO)S(C)(=O)=O (racemic) [Example 45, N-cyclohexyl-5-[4-(hydroxyamino)-3-methyl-3-(methylsulfonyl)-4-oxobutyl]isoxazole-3-carboxamide] | > 64 | > 64 | > 64
9 | CC(CCc1cc(-c2ccc(F)cc2F)no1)(C(=O)NO)S(C)(=O)=O (racemic) [Example 50, 4-[3-(2,4-difluorophenyl)isoxazol-5-yl]-N-hydroxy-2-methyl-2-(methylsulfonyl)butanamide] | 1 (≈ 2.67 µM) | 16 (≈ 42.7 µM) | > 64
10 | COc1cccc(-c2cc(CCC(C)(C(=O)NO)S(C)(=O)=O)no2)c1 (racemic) [Example 29, N-hydroxy-4-[5-(3-methoxyphenyl)isoxazol-3-yl]-2-methyl-2-(methylsulfonyl)butanamide] | 8 (≈ 21.7 µM) | 64 (≈ 174 µM) | > 64
11 | CC(CCc1cc(-c2ccc(Cl)c(Cl)c2)on1)(C(=O)NO)S(C)(=O)=O (racemic) [Example 20, 4-[5-(3,4-dichlorophenyl)isoxazol-3-yl]-N-hydroxy-2-methyl-2-(methylsulfonyl)butanamide] | 1 (≈ 2.46 µM) | 4 (≈ 9.82 µM) | 16 (≈ 39.3 µM)
12 | COc1ccccc1SCc1cc(CCC(C)(C(=O)NO)S(C)(=O)=O)no1 (racemic) [Example 19, N-hydroxy-4-(5-{[(2-methoxyphenyl)thio]methyl}isoxazol-3-yl)-2-methyl-2-(methylsulfonyl)butanamide] | 64 (≈ 154 µM) | > 64 | > 64
